Converted amounts (≈) assume the structure as drawn. Where two headings read alike, the source gives them in different places.
What was measured:
[1] = molecular target: T1, Xanthine oxidase (Bos taurus, UniProt P80457); experiment: Off-target screening (CEREP); type: biochemical, bovine; conditions: read-out: percent inhibition
T1 construct: purchased Eurofins CEREP SA
Experimental: (§1) Supplementary Table 1 │ Off-target activity screening f or MCP compou nds […]
(§2) The assays given in the table above were conducted at Eurofins CEREP S A (Celle-Lévescault, France) and were run as single point measurements in duplicates in the presence of 10 µ M of the test compound and reported as percent inhibition of the radioligand signal or control enzymatic activity. n.d., not

[2] = molecular target: T2, 5HT2A (Homo sapiens, UniProt P28223); experiment: Off-target screening (CEREP); type: binding; conditions: read-out: percent inhibition
T2 construct: purchased Eurofins CEREP SA
T2 sequence (P28223 whole entry): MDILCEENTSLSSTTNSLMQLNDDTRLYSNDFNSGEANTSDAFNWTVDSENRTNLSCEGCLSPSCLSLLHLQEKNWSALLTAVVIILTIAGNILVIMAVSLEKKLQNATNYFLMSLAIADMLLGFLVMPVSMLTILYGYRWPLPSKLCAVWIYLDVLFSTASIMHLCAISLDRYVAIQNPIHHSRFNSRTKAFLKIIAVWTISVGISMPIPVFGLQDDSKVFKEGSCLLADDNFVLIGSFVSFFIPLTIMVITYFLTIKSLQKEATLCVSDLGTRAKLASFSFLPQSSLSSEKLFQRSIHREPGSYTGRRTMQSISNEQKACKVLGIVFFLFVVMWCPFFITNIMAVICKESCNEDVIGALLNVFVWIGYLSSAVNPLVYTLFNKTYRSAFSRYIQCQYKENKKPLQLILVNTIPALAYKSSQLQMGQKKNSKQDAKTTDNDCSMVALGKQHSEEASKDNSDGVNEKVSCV
Experimental: as §1, §2

[3] = molecular target: T3, Histamine H3 receptor (Homo sapiens, UniProt Q9Y5N1); experiment: Off-target screening (CEREP); type: binding; conditions: read-out: percent inhibition
T3 construct: purchased Eurofins CEREP SA
T3 sequence (Q9Y5N1 whole entry): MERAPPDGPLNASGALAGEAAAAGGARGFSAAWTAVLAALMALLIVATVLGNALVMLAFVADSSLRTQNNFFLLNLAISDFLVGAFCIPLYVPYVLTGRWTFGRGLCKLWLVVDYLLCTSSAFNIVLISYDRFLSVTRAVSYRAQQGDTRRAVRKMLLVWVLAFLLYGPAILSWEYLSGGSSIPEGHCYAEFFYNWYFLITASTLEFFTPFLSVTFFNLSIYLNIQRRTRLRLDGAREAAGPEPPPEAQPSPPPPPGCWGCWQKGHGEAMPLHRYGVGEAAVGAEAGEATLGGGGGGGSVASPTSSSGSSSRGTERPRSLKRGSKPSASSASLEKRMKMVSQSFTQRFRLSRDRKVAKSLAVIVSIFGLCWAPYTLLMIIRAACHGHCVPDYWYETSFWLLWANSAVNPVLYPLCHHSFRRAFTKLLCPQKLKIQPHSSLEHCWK
Experimental: as §1, §2

[4] = molecular target: T4, Adenosine A1 respetor (Homo sapiens, UniProt P30542); experiment: Off-target screening (CEREP); type: binding; conditions: read-out: percent inhibition
T4 construct: purchased Eurofins CEREP SA
T4 sequence (P30542 1-326): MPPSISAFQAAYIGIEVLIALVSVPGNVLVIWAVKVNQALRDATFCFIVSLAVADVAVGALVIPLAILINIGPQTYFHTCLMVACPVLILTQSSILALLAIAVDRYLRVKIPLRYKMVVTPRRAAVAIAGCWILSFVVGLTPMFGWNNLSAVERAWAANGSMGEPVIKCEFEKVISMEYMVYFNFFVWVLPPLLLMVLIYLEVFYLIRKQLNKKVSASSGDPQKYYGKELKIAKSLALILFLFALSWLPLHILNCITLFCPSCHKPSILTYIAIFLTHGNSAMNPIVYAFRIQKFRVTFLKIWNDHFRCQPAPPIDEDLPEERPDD
Experimental: as §1, §2

[5] = molecular target: T5, Dopamine D2 receptor (Homo sapiens, UniProt P14416); experiment: Off-target screening (CEREP); type: binding; conditions: read-out: percent inhibition
T5 construct: purchased Eurofins CEREP SA
T5 sequence (P14416 whole entry): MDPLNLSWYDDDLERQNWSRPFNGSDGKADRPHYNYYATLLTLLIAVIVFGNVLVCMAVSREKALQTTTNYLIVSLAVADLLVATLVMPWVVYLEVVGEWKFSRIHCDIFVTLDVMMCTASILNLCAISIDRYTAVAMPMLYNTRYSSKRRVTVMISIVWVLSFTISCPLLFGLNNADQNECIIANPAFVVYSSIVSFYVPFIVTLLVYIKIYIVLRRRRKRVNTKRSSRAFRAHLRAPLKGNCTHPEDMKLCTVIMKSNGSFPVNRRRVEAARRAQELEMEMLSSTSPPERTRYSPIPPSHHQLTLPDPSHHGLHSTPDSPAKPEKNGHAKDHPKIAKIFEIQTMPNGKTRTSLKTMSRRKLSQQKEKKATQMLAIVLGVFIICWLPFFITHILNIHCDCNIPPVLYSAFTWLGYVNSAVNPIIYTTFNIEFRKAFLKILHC
Experimental: as §1, §2

[6] = molecular target: T6, Kappa opioid receptor (Homo sapiens, UniProt P41145); experiment: Off-target screening (CEREP); type: binding; conditions: read-out: percent inhibition
T6 construct: purchased Eurofins CEREP SA
T6 sequence (P41145 whole entry): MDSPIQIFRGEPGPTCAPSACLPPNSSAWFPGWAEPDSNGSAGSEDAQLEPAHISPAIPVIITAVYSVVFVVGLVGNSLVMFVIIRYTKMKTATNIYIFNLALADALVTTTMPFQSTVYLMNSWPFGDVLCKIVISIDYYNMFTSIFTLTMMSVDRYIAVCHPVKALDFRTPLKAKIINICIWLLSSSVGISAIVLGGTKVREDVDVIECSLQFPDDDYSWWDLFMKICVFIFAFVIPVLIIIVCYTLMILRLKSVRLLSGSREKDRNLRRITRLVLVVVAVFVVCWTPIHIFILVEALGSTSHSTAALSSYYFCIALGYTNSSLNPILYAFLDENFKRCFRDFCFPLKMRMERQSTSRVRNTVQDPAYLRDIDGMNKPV
Experimental: as §1, §2

[7] = molecular target: T7, Beta1-adrenoreceptor (Homo sapiens, UniProt P08588); experiment: Off-target screening (CEREP); type: binding; conditions: read-out: percent inhibition
T7 construct: purchased Eurofins CEREP SA
T7 sequence (P08588 whole entry): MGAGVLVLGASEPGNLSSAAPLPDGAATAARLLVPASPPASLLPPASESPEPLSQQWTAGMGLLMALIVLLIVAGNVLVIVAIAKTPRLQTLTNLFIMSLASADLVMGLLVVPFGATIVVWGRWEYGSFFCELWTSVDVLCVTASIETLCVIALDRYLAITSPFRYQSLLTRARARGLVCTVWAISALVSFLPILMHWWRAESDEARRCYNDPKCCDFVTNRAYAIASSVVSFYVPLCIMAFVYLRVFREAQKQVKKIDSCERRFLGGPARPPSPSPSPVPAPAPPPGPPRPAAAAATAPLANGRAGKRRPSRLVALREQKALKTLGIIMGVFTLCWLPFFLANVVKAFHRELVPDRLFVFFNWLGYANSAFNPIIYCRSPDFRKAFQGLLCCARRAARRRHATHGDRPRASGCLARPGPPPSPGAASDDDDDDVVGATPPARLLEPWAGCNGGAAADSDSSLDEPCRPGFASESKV
Experimental: as §1, §2

[8] = molecular target: T8, Cannabinoid receptor CB1 (Homo sapiens, UniProt P21554); experiment: Off-target screening (CEREP); type: binding; conditions: read-out: percent inhibition
T8 construct: purchased Eurofins CEREP SA
T8 sequence (P21554 whole entry): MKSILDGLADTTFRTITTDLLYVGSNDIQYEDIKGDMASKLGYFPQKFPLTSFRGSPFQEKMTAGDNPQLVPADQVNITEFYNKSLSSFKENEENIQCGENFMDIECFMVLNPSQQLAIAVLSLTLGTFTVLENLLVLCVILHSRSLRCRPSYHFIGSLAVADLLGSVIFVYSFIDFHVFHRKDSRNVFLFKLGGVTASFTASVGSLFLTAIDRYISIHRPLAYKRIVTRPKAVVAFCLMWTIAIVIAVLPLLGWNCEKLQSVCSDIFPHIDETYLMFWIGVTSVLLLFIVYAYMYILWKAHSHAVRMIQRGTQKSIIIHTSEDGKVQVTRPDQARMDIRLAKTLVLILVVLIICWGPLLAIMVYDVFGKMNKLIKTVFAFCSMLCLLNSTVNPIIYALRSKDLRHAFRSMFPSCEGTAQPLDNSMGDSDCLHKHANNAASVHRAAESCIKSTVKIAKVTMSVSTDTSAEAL
Experimental: as §1, §2

[9] = molecular target: T9, Histamine H1 receptor (Homo sapiens, UniProt P35367); experiment: Off-target screening (CEREP); type: binding; conditions: read-out: percent inhibition
T9 construct: purchased Eurofins CEREP SA
T9 sequence (P35367 whole entry): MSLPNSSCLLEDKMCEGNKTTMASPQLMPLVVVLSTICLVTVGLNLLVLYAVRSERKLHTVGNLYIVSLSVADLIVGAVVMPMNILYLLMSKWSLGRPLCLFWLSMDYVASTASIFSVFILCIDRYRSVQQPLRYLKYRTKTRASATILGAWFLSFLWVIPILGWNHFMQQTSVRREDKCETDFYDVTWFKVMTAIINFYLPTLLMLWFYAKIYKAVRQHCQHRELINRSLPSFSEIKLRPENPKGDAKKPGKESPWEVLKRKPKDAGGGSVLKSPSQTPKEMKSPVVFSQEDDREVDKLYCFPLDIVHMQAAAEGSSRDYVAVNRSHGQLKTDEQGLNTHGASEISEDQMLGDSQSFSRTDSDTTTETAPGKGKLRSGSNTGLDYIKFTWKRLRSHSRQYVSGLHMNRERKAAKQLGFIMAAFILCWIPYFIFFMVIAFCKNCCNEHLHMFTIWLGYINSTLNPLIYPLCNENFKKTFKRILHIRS
Experimental: as §1, §2

[10] = molecular target: T10, PPAR gamma (Homo sapiens, UniProt P37231); experiment: Off-target screening (CEREP); type: binding; conditions: read-out: percent inhibition
T10 construct: purchased Eurofins CEREP SA
T10 sequence (P37231 1-505): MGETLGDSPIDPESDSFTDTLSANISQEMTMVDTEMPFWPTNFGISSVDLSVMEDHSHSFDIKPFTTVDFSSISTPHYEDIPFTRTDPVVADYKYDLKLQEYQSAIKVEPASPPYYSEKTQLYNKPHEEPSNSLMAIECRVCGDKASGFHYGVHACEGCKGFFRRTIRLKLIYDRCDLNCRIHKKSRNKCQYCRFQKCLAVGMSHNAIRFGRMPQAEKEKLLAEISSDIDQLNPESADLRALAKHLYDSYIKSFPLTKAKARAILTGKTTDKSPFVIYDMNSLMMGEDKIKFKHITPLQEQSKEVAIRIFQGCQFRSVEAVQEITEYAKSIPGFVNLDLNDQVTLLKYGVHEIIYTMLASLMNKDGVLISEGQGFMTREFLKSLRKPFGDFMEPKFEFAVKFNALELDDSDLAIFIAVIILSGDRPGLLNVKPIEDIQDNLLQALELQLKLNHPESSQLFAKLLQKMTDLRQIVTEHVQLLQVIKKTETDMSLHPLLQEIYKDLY
Experimental: as §1, §2

[11] = molecular target: T11, Alpha2A-adrenoreceptor (Homo sapiens, UniProt P08913); experiment: Off-target screening (CEREP); type: binding; conditions: read-out: percent inhibition
T11 construct: purchased Eurofins CEREP SA
T11 sequence (P08913 1-465): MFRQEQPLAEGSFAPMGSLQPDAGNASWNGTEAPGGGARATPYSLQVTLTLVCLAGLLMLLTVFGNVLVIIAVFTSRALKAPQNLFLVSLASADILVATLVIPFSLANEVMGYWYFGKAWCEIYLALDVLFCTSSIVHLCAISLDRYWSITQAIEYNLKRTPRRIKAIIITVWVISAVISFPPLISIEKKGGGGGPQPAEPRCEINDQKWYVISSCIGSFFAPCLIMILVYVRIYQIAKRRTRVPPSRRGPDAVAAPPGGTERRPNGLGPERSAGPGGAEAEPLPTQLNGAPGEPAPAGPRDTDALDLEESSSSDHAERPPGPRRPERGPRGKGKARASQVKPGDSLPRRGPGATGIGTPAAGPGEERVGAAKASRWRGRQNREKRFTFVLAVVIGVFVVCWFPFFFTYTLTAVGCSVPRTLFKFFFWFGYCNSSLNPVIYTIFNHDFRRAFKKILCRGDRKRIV
Experimental: as §1, §2

[12] = molecular target: T12, 5HT3 (Homo sapiens, UniProt P46098); experiment: Off-target screening (CEREP); type: binding; conditions: read-out: percent inhibition
T12 construct: purchased Eurofins CEREP SA
T12 sequence (P46098 24-478): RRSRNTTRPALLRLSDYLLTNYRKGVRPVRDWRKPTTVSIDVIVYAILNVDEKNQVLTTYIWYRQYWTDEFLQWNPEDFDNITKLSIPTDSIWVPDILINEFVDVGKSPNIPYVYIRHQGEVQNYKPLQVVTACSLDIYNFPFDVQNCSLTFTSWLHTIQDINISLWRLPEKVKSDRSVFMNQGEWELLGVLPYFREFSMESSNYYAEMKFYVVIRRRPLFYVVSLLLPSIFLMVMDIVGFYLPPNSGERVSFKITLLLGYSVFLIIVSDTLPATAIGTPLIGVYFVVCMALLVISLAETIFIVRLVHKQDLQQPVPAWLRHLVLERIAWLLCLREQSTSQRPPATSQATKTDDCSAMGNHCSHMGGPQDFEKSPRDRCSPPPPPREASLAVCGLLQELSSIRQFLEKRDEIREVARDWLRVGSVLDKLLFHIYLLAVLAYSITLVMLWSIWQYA
Experimental: as §1, §2

[13] = test system: C. albicans ATCC 90028; conditions: for RO7223280 MIC 100%: C. albicans ATCC 90028, read at 100%

T1 sequence (P80457 whole entry): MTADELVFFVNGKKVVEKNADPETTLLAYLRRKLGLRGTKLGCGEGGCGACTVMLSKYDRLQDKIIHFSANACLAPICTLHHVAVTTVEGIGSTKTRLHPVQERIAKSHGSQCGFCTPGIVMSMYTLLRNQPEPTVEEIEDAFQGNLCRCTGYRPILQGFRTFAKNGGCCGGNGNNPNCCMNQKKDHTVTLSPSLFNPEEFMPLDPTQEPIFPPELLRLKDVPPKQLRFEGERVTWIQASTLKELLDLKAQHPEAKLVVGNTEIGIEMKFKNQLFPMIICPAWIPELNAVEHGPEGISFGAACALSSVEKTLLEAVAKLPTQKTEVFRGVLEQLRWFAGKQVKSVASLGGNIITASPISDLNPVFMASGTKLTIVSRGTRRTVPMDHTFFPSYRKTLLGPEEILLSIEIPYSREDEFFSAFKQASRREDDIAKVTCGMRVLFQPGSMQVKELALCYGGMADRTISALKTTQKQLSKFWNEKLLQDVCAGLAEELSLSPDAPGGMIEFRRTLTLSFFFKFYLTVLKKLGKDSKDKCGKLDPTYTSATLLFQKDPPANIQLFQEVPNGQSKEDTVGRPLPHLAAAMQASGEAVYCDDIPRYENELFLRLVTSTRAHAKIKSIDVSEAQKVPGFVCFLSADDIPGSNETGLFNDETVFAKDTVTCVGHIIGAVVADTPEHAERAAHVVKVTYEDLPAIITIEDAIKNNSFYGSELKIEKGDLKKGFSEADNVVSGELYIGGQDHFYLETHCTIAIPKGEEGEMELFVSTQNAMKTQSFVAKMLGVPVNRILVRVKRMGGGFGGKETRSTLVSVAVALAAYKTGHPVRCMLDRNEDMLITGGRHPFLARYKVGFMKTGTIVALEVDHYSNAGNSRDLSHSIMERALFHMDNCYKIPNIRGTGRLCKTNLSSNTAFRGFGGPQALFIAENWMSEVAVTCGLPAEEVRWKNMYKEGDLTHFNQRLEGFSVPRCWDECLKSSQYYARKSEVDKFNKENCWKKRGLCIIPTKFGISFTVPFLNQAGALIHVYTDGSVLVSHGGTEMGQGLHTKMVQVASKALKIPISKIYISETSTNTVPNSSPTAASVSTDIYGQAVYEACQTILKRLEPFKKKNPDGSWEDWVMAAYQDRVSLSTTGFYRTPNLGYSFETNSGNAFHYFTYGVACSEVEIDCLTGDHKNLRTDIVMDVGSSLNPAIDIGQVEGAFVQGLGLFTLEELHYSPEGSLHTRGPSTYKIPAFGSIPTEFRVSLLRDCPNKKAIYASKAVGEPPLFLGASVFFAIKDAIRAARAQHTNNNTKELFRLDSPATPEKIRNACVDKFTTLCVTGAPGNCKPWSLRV

CN1C(=O)[C@H](CCCN)NC(=O)[C@H](CCCN)NCc2ccccc2Sc2ccccc2CNC(=O)[C@@H]1Cc1c[nH]c2ccccc12 [RO7036668]
inhibition at 10 µM ([1]; 10 µM, duplicates): -16% | inhibition at 10 µM ([2]; 10 µM, duplicates): -2% | inhibition at 10 µM ([3]; 10 µM, duplicates): 12% | inhibition at 10 µM ([4]; 10 µM, duplicates): 1% | inhibition at 10 µM ([5]; 10 µM, duplicates): 74% | inhibition at 10 µM ([6]; 10 µM, duplicates): 69% | inhibition at 10 µM ([7]; 10 µM, duplicates): 12% | inhibition at 10 µM ([8]; 10 µM, duplicates): -26% | inhibition at 10 µM ([9]; 10 µM, duplicates): 16% | inhibition at 10 µM ([10]; 10 µM, duplicates): -1% | inhibition at 10 µM ([11]; 10 µM, duplicates): -2% | inhibition at 10 µM ([12]; 10 µM, duplicates): 6%

CN1C(=O)[C@H](CCCCN)NC(=O)[C@H](CCCN)NCc2cccnc2Sc2c(Cl)ccc(Cl)c2CNC(=O)[C@@H]1Cc1c[nH]c2ccccc12 [RO7075573]
MIC 100% ([13]; Study LGC281440): 64 mg/L (≈ 86.5 µM) | MIC 100% ([13]; Study LGC282160): >64 mg/L | MIC 100% ([13]; Study LGC284879): >64 mg/L | MIC 100% ([13]; Study LGC285582): >64 mg/L | MIC 100% ([13]; Study LGC286210): >64 mg/L | MIC 100% ([13]; Study LGC293598): >64 mg/L | MIC 100% ([13]; Study LGC294355): >64 mg/L | MIC 100% ([13]; Study LGC295147): >64 mg/L | MIC 100% ([13]; Study LGC296813): >64 mg/L | MIC 100% ([13]; Study LGC299544): >64 mg/L | MIC 100% ([13]; Study LGC301026): >64 mg/L | MIC 100% ([13]; Study LGC308175): >64 mg/L | MIC 100% ([13]; Study ROC010): >64 mg/L | MIC 100% ([13]; Study ROC012): >64 mg/L | inhibition at 10 µM [1]: 6% | inhibition at 10 µM [2]: -17% | inhibition at 10 µM [3]: -4% | inhibition at 10 µM [4]: -10% | inhibition at 10 µM [5]: 28% | inhibition at 10 µM [6]: 26% | inhibition at 10 µM [7]: -2% | inhibition at 10 µM [8]: -16% | inhibition at 10 µM [9]: 4% | inhibition at 10 µM [10]: -16% | inhibition at 10 µM [11]: -5% | inhibition at 10 µM [12]: 8%

CN1C(=O)[C@H](CCCCN)NC(=O)[C@H](CCCN)NCc2cccnc2Sc2c(Cl)ccc(-c3ccc(C(=O)O)cc3)c2CNC(=O)[C@@H]1Cc1c[nH]c2ccccc12 [RO7202110]
inhibition at 10 µM ([1]; 10 µM, duplicates): 0% | inhibition at 10 µM ([2]; 10 µM, duplicates): 4% | inhibition at 10 µM ([3]; 10 µM, duplicates): 5% | inhibition at 10 µM ([4]; 10 µM, duplicates): 1% | inhibition at 10 µM ([5]; 10 µM, duplicates): 28% | inhibition at 10 µM ([6]; 10 µM, duplicates): 32% | inhibition at 10 µM ([7]; 10 µM, duplicates): -2% | inhibition at 10 µM ([8]; 10 µM, duplicates): -24% | inhibition at 10 µM ([9]; 10 µM, duplicates): -3% | inhibition at 10 µM ([10]; 10 µM, duplicates): -8% | inhibition at 10 µM ([11]; 10 µM, duplicates): -2% | inhibition at 10 µM ([12]; 10 µM, duplicates): 6%

C[C@@H](O)[C@H]1C(=O)N2C(C(=O)O)=C(S[C@@H]3CN[C@H](C(=O)N(C)C)C3)[C@H](C)[C@H]12 [meropenem, reference compound]
MIC 100% ([13]; Study LGC277937): >64 mg/L | MIC 100% ([13]; Study LGC279800): >64 mg/L | MIC 100% ([13]; Study LGC281440): >64 mg/L | MIC 100% ([13]; Study LGC282160): >64 mg/L | MIC 100% ([13]; Study LGC282623): >64 mg/L | MIC 100% ([13]; Study LGC283932): >64 mg/L | MIC 100% ([13]; Study LGC284200): >64 mg/L | MIC 100% ([13]; Study LGC284879): >64 mg/L | MIC 100% ([13]; Study LGC285582): >64 mg/L | MIC 100% ([13]; Study LGC286210): >64 mg/L | MIC 100% ([13]; Study LGC293598): >64 mg/L | MIC 100% ([13]; Study LGC294355): >64 mg/L | MIC 100% ([13]; Study LGC295147): >64 mg/L | MIC 100% ([13]; Study LGC296813): >64 mg/L | MIC 100% ([13]; Study LGC299544): >64 mg/L | MIC 100% ([13]; Study LGC301026): >64 mg/L | MIC 100% ([13]; Study LGC308175): >64 mg/L | MIC 100% ([13]; Study ROC003): >64 mg/L | MIC 100% ([13]; Study ROC004): >64 mg/L | MIC 100% ([13]; Study ROC005): >64 mg/L | MIC 100% ([13]; Study ROC006): >64 mg/L | MIC 100% ([13]; Study ROC008): >64 mg/L | MIC 100% ([13]; Study ROC009): >64 mg/L | MIC 100% ([13]; Study ROC010): >64 mg/L | MIC 100% ([13]; Study ROC013): >64 mg/L

CN1C(=O)[C@H](CCCCN)NC(=O)[C@H](CCCN)NCc2cccnc2Sc2cccc(-c3ccc(C(=O)O)cc3)c2CNC(=O)[C@@H]1Cc1c[nH]c2ccccc12 [zosurabalpin]
RO7223280 MIC 100% ([13]; Study LGC296813): >64 mg/L | RO7223280 MIC 100% ([13]; Study LGC299544): >64 mg/L | RO7223280 MIC 100% ([13]; Study LGC308175): >64 mg/L | inhibition at 10 µM [1]: 5% | inhibition at 10 µM [2]: 3% | inhibition at 10 µM [3]: 5% | inhibition at 10 µM [4]: -7% | inhibition at 10 µM [5]: 14% | inhibition at 10 µM [6]: 9% | inhibition at 10 µM [7]: 10% | inhibition at 10 µM [8]: -20% | inhibition at 10 µM [9]: -4% | inhibition at 10 µM [10]: -4% | inhibition at 10 µM [11]: 4% | inhibition at 10 µM [12]: 3%
